Laboratory results as given in patent publication US20040224898A1, “Compositions and methods for promoting lipid mobilization in humans” (priority 2002, published 2004).
Bridges are numbered along the chain shown (N, C = ends). Where no end group is shown, it is not given here.

Experiments:
Type in all cases: cell-based
[1] = test system: human adipocytes; experiment: Release of tritium label from radiolabeled palmitate (lipid mobilizing activity); conditions: for Ability to mobilize lipids in adipocytes: conclusion of Example 1, murine adipocytes
Protocol: Lipid mobilizing activity was assessed by assaying release of tritium label from radiolabeled palmitate. This assay was performed by maintaining human pre-adipocytes in Adipocyte Growth Medium (AGM), which is Dulbecco's Modified Eagle's Medium (DMEM) mixed 1:1 by volume with Ham's F-10 medium. Ham's F-10 medium comprises 15 millimolar HEPES buffer adjusted to pH 7.4 and supplemented with biotin, pantothenate, human recombinant insulin, dexamethasone, fungicide, bactericide, and 3% (v/v) fetal bovine serum). Pre-adipocytes differentiated to become mature adipocytes by three weeks of maintenance in AGM. On the day prior to assay, the adipocytes were washed and incubated overnight in Krebs-Ringers buffer comprising 0.1% fatty acid-free bovine serum albumin (BSA) and comprising 1 microCurie per milliliter of tritiated (9,10-^3H) palmitate. The following day, the medium was removed, and the cells were washed three times […]. Isoproterenol (0 to 5×10^−8 molar), Schistocera gregaria AKH II (0 to 5×10^−5 molar), or Krebs-Ringer buffer (with 0.1% fatty acid-free BSA) containing neither of these was added to the cell suspension in a volume of 150 microliters. The suspensions were incubated for 4 hours at 37° C., and then 100 microliters of each sample was subjected to scintillation counting to detect released label in the supernatant. The total amount of label incorporated was determined for each well by solubilizing the cells using 1% sodium dodecyl sulfate and subjecting the entire contents of the well to scintillation counting. Fractional release of label was calculated by dividing the amount of label detected in cell supernatant by the total amount of label detected in the supernatant and in the cells remaining in the well, and percentage release was calculated by multiplying fractional release by 100.
A similar study was done using the same methods, except that cockroach hypertrehalosemic factor (0 to 5×10^−5 molar) was used in place of S. gregaria AKH II.
A similar tritium label release experiment performed using Heliothis zea AKH II and Locusta migratoria, except that a two-hour incubation period was used in place of a 4 hour incubation period.

[2] = test system: human adipocytes; experiment: Glycerol release assay; conditions: for Lipid mobilizing activity: control hormones, Example 2; for Ability to promote lipid mobilization in human adipocytes: conclusion of Example 2
Protocol: (§1) Human pre-adipocytes were isolated by liposuction and maintained in AGM for three weeks in order to permit the pre-adipocytes to differentiate to become mature adipocytes. AGM was removed, and adipocytes were incubated in Krebs-Ringers buffer comprising 0.1% fatty acid-free BSA at 37° C. for five hours in the presence of selected concentrations (10^−9 to 10^−5 molar) of one of Schistocera gregaria AKH II, cockroach hypertrehalosemic factor (obtained from Sigma Chemical Co, St. Louis, Mo., catalog number P0175), and Locusta migratoria AKH I (obtained from American Peptide Co., Sunnyvale, Calif., catalog number 60-9-18). Glycerol released from the adipocytes was assayed using a commercially available kit (GPO-trinder assay kit available form Sigma Chemical Company, St. Louis, Mo.).
A similar experiment was performed, in which glycerol release from adipocytes was assessed in the presence of the Locusta migratoria AKH I or the cockroach hypertrehalosemic factor or in the presence of isoproterenol.

[3] = test system: human adipocytes; experiment: Effect of propanolol on agent-induced glycerol release; conditions: for Glycerol Release, No Agent (medium concentration in millimolar): propanolol alone
Protocol: as §1
Glycerol release assays were performed as described in Example 2, except that the assays were performed using single selected concentrations of one of cockroach hypertrehalosemic factor, Locusta migratoria AKH I, and isoproterenol and multiple selected concentrations of propanolol.

[4] = agent 1 × 10^−8 molar, 4 hours, 37° C., Table 5 experiment
[5] = agent 1 × 10^−9 molar, 4 hours, 37° C., Table 5 experiment
[6] = agent 1 × 10^−10 molar, 4 hours, 37° C., Table 5 experiment
[7] = agent 1 × 10^−6, Table 9 experiment
[8] = agent 1 × 10^−7, Table 9 experiment
[9] = agent 1 × 10^−8, Table 9 experiment
[10] = agent 1 × 10^−5 molar, five hours, 37° C., Table 8 experiment
[11] = agent 1 × 10^−6 molar, five hours, 37° C., Table 8 experiment
[12] = agent 1 × 10^−7 molar, five hours, 37° C., Table 8 experiment
[13] = agent 1 × 10^−8 molar, five hours, 37° C., Table 8 experiment
[14] = agent 1 × 10^−9 molar, five hours, 37° C., Table 8 experiment

In the case of `CC(C)NCC(O)c1ccc(O)c(O)c1` (stereo not shown) [Isoproterenol, isoproterenol, reference compound], the “% Tritium Label Release with Agent” value [1, 4] is reported as 15.58%, the “% Tritium Label Release with Agent” value ([1]; agent 1 × 10^−8 molar, 4 hours, 37° C., Table 6 experiment) is reported as 9.8% and the “% Tritium Label Release with Agent” value [1, 5] is reported as 12.67%. For the same compound, the “% Tritium Label Release with Agent” value ([1]; agent 1 × 10^−9 molar, 4 hours, 37° C., Table 6 experiment) was 6.67%, the “% Tritium Label Release with Agent” value [1, 6] was 11.11% and the “% Tritium Label Release with Agent” value ([1]; agent 1 × 10^−10 molar, 4 hours, 37° C., Table 6 experiment) was 8.97%. For the same compound, the “% Tritium Label Release with Agent” value ([1]; agent 1 × 10^−11 molar, 4 hours, 37° C., Table 5 experiment) was 9.9%, the “% Tritium Label Release with Agent” value ([1]; agent 1 × 10^−11 molar, 4 hours, 37° C., Table 6 experiment) was 5.87% and the “% Tritium Label Release with Agent” value ([1]; agent 5 × 10^−8 molar, 4 hours, 37° C., Table 5 experiment) was 16.99%. For the same compound, the “% Tritium Label Release with Agent” value ([1]; agent 5 × 10^−8 molar, 4 hours, 37° C., Table 6 experiment) was 10.8%, the “% Tritium Label Release with Agent” value ([1]; agent 5 × 10^−9 molar, 4 hours, 37° C., Table 5 experiment) was 14.14% and the “% Tritium Label Release with Agent” value ([1]; agent 5 × 10^−9 molar, 4 hours, 37° C., Table 6 experiment) was 5.93%. For the same compound, the “% Tritium Label Release with Agent” value ([1]; agent 5 × 10^−10 molar, 4 hours, 37° C., Table 5 experiment) was 11.21%, the “% Tritium Label Release with Agent” value ([1]; agent 5 × 10^−10 molar, 4 hours, 37° C., Table 6 experiment) was 7.58% and the “% Tritium Label Release with Agent” value ([1]; agent 5 × 10^−11 molar, 4 hours, 37° C., Table 5 experiment) was 10.62%. For the same compound, the “% Tritium Label Release with Agent” value ([1]; agent 5 × 10^−11 molar, 4 hours, 37° C., Table 6 experiment) was 6.96%, the “% Tritium Label Release with Agent” value ([1]; agent 5 × 10^−12 molar, 4 hours, 37° C., Table 5 experiment) was 10.12% and the “% Tritium Label Release with Agent” value ([1]; agent 5 × 10^−12 molar, 4 hours, 37° C., Table 6 experiment) was 6.81%. The “Glycerol Release with Agent (medium concentration in millimolar)” value (shortened to “Glycerol Release with Agent”) [2, 7] was 0.5172 ± 0.1659 millimolar, the “Glycerol Release with Agent” value [2, 8] was 0.2169 ± 0.0316 millimolar and the “Glycerol Release with Agent” value [2, 9] was 0.1325 ± 0.0244 millimolar. The “Glycerol Release with Agent” value ([2]; agent 1 × 10^−9, Table 9 experiment) was 0.0381 ± 0.011 millimolar, the “Glycerol Release with Agent” value ([3]; agent 1 micromolar, propanolol 0 molar) was 0.5172 millimolar and the “Glycerol Release with Agent” value ([3]; agent 1 micromolar, propanolol 1 × 10^−5 molar) was 0.2305 millimolar. For the same compound, the “Glycerol Release with Agent” value ([3]; agent 1 micromolar, propanolol 1 × 10^−6 molar) was 0.411 millimolar and the “Glycerol Release with Agent” value ([3]; agent 1 micromolar, propanolol 1 × 10^−7 molar) was 0.6533 millimolar.

With `CC(C)NCC(O)COc1cccc2ccccc12` (stereo not shown) [Propanolol, propanolol] the “Inhibition by propanolol of glycerol release induced by isoproterenol” value ([3]; adipocytes) was “able to inhibit glycerol release”, the “Glycerol Release, No Agent (medium concentration in millimolar)” value (“Glycerol Release, No Agent” for short) ([3]; 1 × 10^−5 molar) was 0.0463 ± 0.0042 millimolar and the “Glycerol Release, No Agent” value ([3]; 1 × 10^−6 molar) was 0.0417 ± .00072 millimolar. The “Glycerol Release, No Agent” value ([3]; 1 × 10^−7 molar) was 0.0399 ± 0.0069 millimolar and the “Glycerol Release, No Agent” value ([3]; 1 × 10^−8 molar) was 0.0399 ± 0.0083 millimolar.

With “DFDMLRCMLGRVYRPCWQV (disulfide 7-16 (inferred); listed as Insect sp.) [melanocyte concentrating hormone, reference compound]” the Lipid mobilizing activity [2] was “No lipid mobilizing activity could be detected”.

In the case of “ELNFSTGW (listed as Schistocerca gregaria) [Schistocera gregaria AKH II, insect adipokinetic hormone of the desert locust]”, the “% Tritium Label Release with Agent” value ([1]; agent 1 × 10^−5 molar, 4 hours, 37° C., Table 5 experiment) is reported as 14.28%, the “% Tritium Label Release with Agent” value ([1]; agent 1 × 10^−6 molar, 4 hours, 37° C., Table 5 experiment) is reported as 13.38% and the “% Tritium Label Release with Agent” value ([1]; agent 1 × 10^−7 molar, 4 hours, 37° C., Table 5 experiment) is reported as 10.76%. The “% Tritium Label Release with Agent” value [1, 4] was 10.76%, the “% Tritium Label Release with Agent” value [1, 5] was 9.6% and the “% Tritium Label Release with Agent” value [1, 6] was 10.74%. For the same compound, the “% Tritium Label Release with Agent” value ([1]; agent 5 × 10^−5 molar, 4 hours, 37° C., Table 5 experiment) was 16.65%, the “% Tritium Label Release with Agent” value ([1]; agent 5 × 10^−6 molar, 4 hours, 37° C., Table 5 experiment) was 14.94% and the “% Tritium Label Release with Agent” value ([1]; agent 5 × 10^−7 molar, 4 hours, 37° C., Table 5 experiment) was 11.31%. For the same compound, the “Ability to mobilize lipids in adipocytes” value [1] was “able to mobilize lipids”, the “Glycerol Release with Agent” value [2, 10] was 0.693 millimolar and the “Glycerol Release with Agent” value [2, 11] was 0.628 millimolar. The “Glycerol Release with Agent” value [2, 12] was 0.530 millimolar, the “Glycerol Release with Agent” value [2, 13] was 0.523 millimolar and the “Glycerol Release with Agent” value [2, 14] was 0.486 millimolar. The “Ability to promote lipid mobilization in human adipocytes” value [2] was “able to promote lipid mobilization”.

For “ELNFTPNWGT (listed as Schistocerca gregaria) [Locusta migratoria AKH I, insect adipokinetic hormone, American Peptide Co. catalog number 60-9-18]”, the “% Tritium Label Release with Agent” value ([1]; agent 1 × 10^−5 molar, two-hour incubation, Table 7) was 10.8%, the “% Tritium Label Release with Agent” value ([1]; agent 1 × 10^−6 molar, two-hour incubation, Table 7) was 7.52% and the “% Tritium Label Release with Agent” value ([1]; agent 1 × 10^−7 molar, two-hour incubation, Table 7) was 6.34%. For the same compound, the “% Tritium Label Release with Agent” value ([1]; agent 1 × 10^−8 molar, two-hour incubation, Table 7) was 7.00%, the “% Tritium Label Release with Agent” value ([1]; agent 1 × 10^−9 molar, two-hour incubation, Table 7) was 7.44% and the “% Tritium Label Release with Agent” value ([1]; agent 1 × 10^−10 molar, two-hour incubation, Table 7) was 7.62%. For the same compound, the “Ability to mobilize lipids in adipocytes” value [1] was “able to mobilize lipids”, the “Glycerol Release with Agent” value ([2]; agent 1 × 10^−5, Table 9 experiment) was 0.0871 ± 0.0134 millimolar and the “Glycerol Release with Agent” value [2, 10] was 0.691 millimolar. For the same compound, the “Glycerol Release with Agent” value [2, 7] was 0.0427 ± 0.0129 millimolar, the “Glycerol Release with Agent” value [2, 11] was 0.467 millimolar and the “Glycerol Release with Agent” value [2, 8] was 0.0336 ± 0.0082 millimolar. For the same compound, the “Glycerol Release with Agent” value [2, 12] was 0.490 millimolar, the “Glycerol Release with Agent” value [2, 9] was 0.0209 ± 0.0110 millimolar and the “Glycerol Release with Agent” value [2, 13] was 0.476 millimolar. For the same compound, the “Glycerol Release with Agent” value [2, 14] was 0.611 millimolar, the “Ability to promote lipid mobilization in human adipocytes” value [2] was “able to promote lipid mobilization” and the “Glycerol Release with Agent” value ([3]; agent 10 micromolar, propanolol 0 molar) was 0.0871 ± 0.0134 millimolar. For the same compound, the “Glycerol Release with Agent” value ([3]; agent 10 micromolar, propanolol 1 × 10^−5 molar) was 0.2214 ± 0.0287 millimolar, the “Glycerol Release with Agent” value ([3]; agent 10 micromolar, propanolol 1 × 10^−6 molar) was 0.2169 ± 0.0294 millimolar and the “Glycerol Release with Agent” value ([3]; agent 10 micromolar, propanolol 1 × 10^−7 molar) was 0.2486 ± 0.0249 millimolar.

In the case of “SYSMEHFRWGKPV (Ac-SYSMEHFRWGKPV-NH2; listed as Insect sp.) [alpha-melanocyte stimulating hormone, reference compound]”, the Lipid mobilizing activity [2] is reported as “No lipid mobilizing activity could be detected”.
